Reference: patent EP1408048A1, “Vaccines of enhanced immunogenicity, and methods for preparing such vaccines” (INSTITUT NATIONAL DE LA SANTE ET DE LA RECHERCHE MEDICALE …, priority 2002, dated 2004)

Test system: TAP
Assay: TAP competitive binding assay with radio-labeled reporter peptide R9L
Details: result in words; TAP affinity = inverse of the IC50; reporter peptide R9L at 300 nM
Protocol: TAP affinities were determined in a competitive binding assay. IC50 values for competitor test peptides were normalized with respect to the IC50 of reporter peptide […] (SEQ ID N° 2).
Determination of HLA-A2 and TAP affinities. […] Results are expressed as inverse normalized IC50 (1/IC50 of test peptide/ IC50 of cold reporter peptide).

TAP affinity: high
Sequence: RRYNASTEL [R9L]
